Entries after “also recorded” stand apart in the source; their conditions may differ.
Columns and labels:
Type in all cases: cell-based
[1] = target: T1, hCB1 mutant L209A^3.45 (Homo sapiens, UniProt P21554, L209A); assay: pIRES G protein dissociation BRET assay, L209A mutant; conditions: 10 μM ligand alone
T1 construct: expressed in transfected cells; host or cells: HEK293
Description: (§1) Mutagenesis studies using the pIRES G protein dissociation assay were performed using human embryonic kidney 293 (HEK293) wild-type cells transiently transfected with pplss-3HA-hCB1 [31] or modified receptor. All cells were cultured in Dulbecco’s Modified Eagle’s Medium (DMEM) supplemented with 10% fetal bovine serum (FBS), grown in […] vented-cap flasks, and maintained in a 37° C incubator at 5% CO2.
(§2) Mutants of pplss-3HA-hCB1 (WT, pEF-V4-HisA (pEF4a) construct) were generated using a modified QuikChange® (Stratagene, San Diego, CA, USA) site-directed mutagenesis approach using KAPA HiFi Hotstart Polymerase (KAPA Biosystems, Roche, Basel, Switzerland). Briefly, single-stranded primers used to modify one or two base pairs within the target amino acid using PCR were purchased from Integrated DNA Technologies (IDT, Coralville, IA, USA). All pplss-hCB1 mutants were generated using the pplss-3HA-hCB1 pEF4a as parental DNA. PCR products were generated using recommended cycling conditions and treated with Dpn1 (New England Biolabs, Ipswich, MA, USA) overnight at 37° C to digest methylated parental DNA. PCR products were electrophoresed and run on an agarose gel (1% (w.v^−1) agarose, HydraGene, Piscataway, NJ, USA) containing 0.25 μg/mL ethidium bromide (Sigma-Aldrich, St. Louis, MO, USA). Gels were run in 40 mM TRIS-acetate buffer containing […] (pH 8.3) at 100 V for 30 min, maximum current and included a 1kb+ DNA ladder (Invitrogen, Thermo Fisher Scientific, Carlsbad, CA, USA) for reference. Gels were imaged using an UVTech Alliance Q9 Mini transilluminator (UVTech Alliance, Cambridge, UK). Digested products were then used to transform NEB 5α competent E. coli cells in accordance with manufacturer’s instructions. Briefly, transformed PCR products were grown overnight on 8.5 mL Luria Broth agar plates (containing 100 μg/mL ampicillin) at 37° C. Single bacterial colonies were picked and inoculated in Luria Broth (containing 100 μg/mL ampicillin) and grown overnight in a shaking incubator at 37° C. Plasmids were then harvested and purified using a Qiagen miniprep kit (Qiagen, Hilden, Germany) and validated using sequencing (Genetics Analysis Service, University of Otago, Dunedin, New Zealand).
(§3) Dissociation of the G protein heterotrimer, specifically Gαi1, Gβ1, and Gγ2, was investigated using a bioluminescence resonance energy transfer (BRET) assay with the pIRES biosensor first described by and adapted by.
(§4) Briefly, 3 × 10^6 WT HEK293 cells were seeded into 10 cm culture dishes (Corning, Corning, NY, USA; one dish for the control receptor and one for each modified receptor) and incubated at 37 °C for 24 h to gain 50–60% confluency. Culture medium was then replaced and transfection mixtures containing 3 μg pIRES vector and 1 μg receptor (either pplss-hCB1 or modified receptor) were prepared (4 μg total DNA). Plasmids were initially diluted in sterile Milli-Q water before being diluted in OptiMEM reduced serum medium (Thermo Fisher Scientific, Waltham, MA, USA) and combined with […] polyethylenimine (PEI)-max (1:9 DNA:PEI-max ratio) and incubated at room temperature for 20 min. Transfection mixtures were then added to cells via dropwise addition, and cells were incubated at 37 °C for 24 h. Transfected cells were lifted and plated at 50,000 cells/well into poly-d-lysine (PDL; Sigma-Aldrich) coated white 96-well CulturPlates (PerkinElmer, Waltham, MA, USA) and incubated for a further 24 h at 37 °C.
To assay, the culture medium was aspirated and cells were washed with phosphate buffered saline (PBS) and replaced with BRET assay medium (phenol red free DMEM containing 25 mM HEPES and supplemented with 1 mg/mL bovine serum albumin; BSA, MP Biomedicals, Auckland, New Zealand) for 30 min prior to drug addition (serum starve). Drugs were prepared at 10 × concentration in BRET assay medium, combined in a polypropylene V-bottom plate, and incubated at 37° C prior to drug stimulation. […]

[2] = target: T2, hCB1 mutant I169A^2.56 (Homo sapiens, UniProt P21554, I169A); assay: pIRES G protein dissociation BRET assay, I169A mutant
T2 construct: expressed in transfected cells; host or cells: HEK293
T2 sequence (P21554 whole entry I169A): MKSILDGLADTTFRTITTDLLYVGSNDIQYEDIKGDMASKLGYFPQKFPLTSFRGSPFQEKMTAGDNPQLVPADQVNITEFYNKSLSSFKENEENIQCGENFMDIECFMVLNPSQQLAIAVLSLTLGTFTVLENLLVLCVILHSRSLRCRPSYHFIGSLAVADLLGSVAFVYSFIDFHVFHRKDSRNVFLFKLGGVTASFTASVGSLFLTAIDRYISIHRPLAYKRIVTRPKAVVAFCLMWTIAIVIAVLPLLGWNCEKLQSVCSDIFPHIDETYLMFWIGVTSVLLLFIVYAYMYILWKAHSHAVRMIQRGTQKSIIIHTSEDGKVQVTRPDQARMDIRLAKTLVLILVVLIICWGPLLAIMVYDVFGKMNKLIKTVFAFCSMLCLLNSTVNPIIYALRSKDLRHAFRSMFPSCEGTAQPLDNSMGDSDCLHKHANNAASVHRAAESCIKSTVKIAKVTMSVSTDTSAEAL
Description: as §1, §2, §3, §4
(§5) To assay, the culture medium was aspirated and cells were washed with phosphate buffered saline (PBS) and replaced with BRET assay medium (phenol red free DMEM containing 25 mM HEPES and supplemented with 1 mg/mL bovine serum albumin; BSA, MP Biomedicals, Auckland, New Zealand) for 30 min prior to drug addition (serum starve). Drugs were prepared at 10 × concentration in BRET assay medium, combined in a polypropylene V-bottom plate, and incubated at 37° C prior to drug stimulation.

[3] = target: T3, hCB1 mutant K232A^4.41 (Homo sapiens, UniProt P21554, K232A); assay: pIRES G protein dissociation BRET assay, K232A mutant; conditions: 10 μM ligand alone
T3 construct: expressed in transfected cells; host or cells: HEK293
T3 sequence (P21554 whole entry K232A): as the sequence (P21554 whole entry I169A) above, with A169I, K232A counted along it
Description: as §1, §2, §3, §4, §5

[4] = target: T4, hCB1 mutant F289A^5.53 (Homo sapiens, UniProt P21554, F289A); assay: pIRES G protein dissociation BRET assay, F289A mutant; conditions: 10 μM ligand alone
T4 construct: expressed in transfected cells; host or cells: HEK293
T4 sequence (P21554 whole entry F289A): as the sequence (P21554 whole entry I169A) above, with A169I, F289A counted along it
Description: as §1, §2, §3, §4, §5

[5] = target: T5, hCB1 mutant Y172A^2.59 (Homo sapiens, UniProt P21554, Y172A); assay: pIRES G protein dissociation BRET assay, Y172A mutant
T5 construct: expressed in transfected cells; host or cells: HEK293
T5 sequence (P21554 whole entry Y172A): as the sequence (P21554 whole entry I169A) above, with A169I, Y172A counted along it
Description: as §1, §2, §3, §4, §5

[6] = target: T6, hCB1 mutant L404A^8.50 (Homo sapiens, UniProt P21554, L404A); assay: pIRES G protein dissociation BRET assay, L404A mutant; conditions: 10 μM ligand alone
T6 construct: expressed in transfected cells; host or cells: HEK293
T6 sequence (P21554 whole entry L404A): as the sequence (P21554 whole entry I169A) above, with A169I, L404A counted along it
Description: as §1, §2, §3, §4, §5

[7] = target: T7, hCB1 mutant H154A^2.41 (Homo sapiens, UniProt P21554, H154A); assay: pIRES G protein dissociation BRET assay, H154A mutant; conditions: 10 μM ligand alone
T7 construct: expressed in transfected cells; host or cells: HEK293
T7 sequence (P21554 whole entry H154A): as the sequence (P21554 whole entry I169A) above, with H154A, A169I counted along it
Description: as §1, §2, §3, §4, §5

[8] = target: T8, hCB1 mutant S173A^2.60 (Homo sapiens, UniProt P21554, S173A); assay: pIRES G protein dissociation BRET assay, S173A mutant; conditions: 10 μM ligand alone
T8 construct: expressed in transfected cells; host or cells: HEK293
T8 sequence (P21554 whole entry S173A): as the sequence (P21554 whole entry I169A) above, with A169I, S173A counted along it
Description: as §1, §2, §3, §4, §5

[9] = target: T9, hCB1 mutant I245A^4.54 (Homo sapiens, UniProt P21554, I245A); assay: pIRES G protein dissociation BRET assay, I245A mutant; conditions: 10 μM ligand alone
T9 construct: expressed in transfected cells; host or cells: HEK293
T9 sequence (P21554 whole entry I245A): as the sequence (P21554 whole entry I169A) above, with A169I, I245A counted along it
Description: as §1, §2, §3, §4, §5

T1 sequence (P21554 whole entry L209A): as the sequence (P21554 whole entry I169A) above, with A169I, L209A counted along it

O=[N+]([O-])C[C@H](c1ccccc1)c1c(-c2ccccc2)[nH]c2ccccc12 [GAT228]
G protein dissociation, AUC of 10 μM compound (maximal response) [1]: −19.0 ± 3.3
G protein dissociation, AUC of 10 μM compound (maximal response) ([2]; 10 μM ligand alone): 30.0 ± 5.9
Allosteric agonism: G protein dissociation in the absence of an orthosteric ligand ([2]; 10 μM, result in words): abolished; also recorded: inhibited constitutive G protein dissociation
G protein dissociation, AUC of 10 μM compound (maximal response) [3]: −94.0 ± 10.5
G protein dissociation, AUC of 10 μM compound (maximal response) [4]: −97.4 ± 7.2
Increase in the potency of CP55940-induced G protein dissociation ([5]; 10 μM allosteric ligand): less than 0.5 log units
G protein dissociation, AUC of 10 μM compound (maximal response) ([5]; 10 μM ligand alone): −133.4 ± 9.8
G protein dissociation, AUC of 10 μM compound (maximal response) [6]: −63.2 ± 5.6
G protein dissociation, AUC of 10 μM compound (maximal response) [7]: −101.6 ± 6.9
G protein dissociation, AUC of 10 μM compound (maximal response) [8]: −105.5 ± 7.6
G protein dissociation, AUC of 10 μM compound (maximal response) [9]: −90.3 ± 8.5

Reference: article PMC10892375, “Determination of the Cannabinoid CB1 Receptor’s Positive Allosteric Modulator Binding Site through Mutagenesis Studies” (Pharmaceuticals, 2024)
